Series [1] concerns the target T1, ENL YEATS (Homo sapiens, UniProt Q03111).
T1 construct: final concentrations of 100 nM His-ENL YEATS, 100 nM Biotin-ENL-S1
T1 sequence (Q03111 1-138 limits assumed): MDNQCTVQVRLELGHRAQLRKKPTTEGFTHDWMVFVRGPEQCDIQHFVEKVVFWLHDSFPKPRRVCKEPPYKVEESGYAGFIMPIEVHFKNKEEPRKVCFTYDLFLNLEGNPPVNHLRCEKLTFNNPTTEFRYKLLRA
Kind of series: AlphaScreen assay with biotinylated ENL-S1 peptide. To be noted: inhibition of ENL YEATS binding to ENL-S1 peptide; mean ± SD, n = 3; read-out: Alpha IC50 (nM) for ENL YEATS. The method, then: The AlphaScreen assay was carried out in 384-well plates. Manual assay setup was performed in a 40 μL reaction buffer (50 mM HEPES pH 7.4, 100 mM NaCl, 0.1% bovine serum albumin, and 0.05% CHAPS) with final concentrations of 100 nM His-ENL YEATS, 100 nM Biotin-ENL-S1, and 20 μg/mL of AlphaScreen donor and acceptor beads. The protein, peptide, and compounds were mixed and incubated for 1 h at room temperature and then incubated for 30 min in dark after adding the α beads. AlphaScreen-signals were detected by a multimode microplate reader (BioTeK Synergy Neo2) equipped with an Alpha-laser (PerkinElmer).
A general note: In Alpha technology, singlet oxygen from a donor bead excites a nearby acceptor bead.

Series [2] in a line: In vitro metabolic stability assay in HLM. The format is in vitro ADME, human. Conditions: for CLint scaled at 1 h: read-out: Liver Microsome CLint, pred; for parent compound remaining after 60 min incubation in HLM: in the presence of NADPH. How it is done: At 0, 5, 15, 30, 45, and 60 min, 200 μL acetonitrile (with the internal standard diclofenac as 10 μg/mL) was added to terminate the reaction, the remaining compound was analyzed by HPLC-MS/MS.
For orientation: Liver microsomes are a subcellular fraction often used to study metabolism.

Series [3] is described as follows: In vitro stability assay in human plasma. The format is in vitro ADME. Conditions: 37 °C; for Plasma % of parent compound remaining (after 2h incubation): 5 μM, mean ± SD, n = 3. How it is done: The in vitro stability analysis of a test compound was initiated by the addition of the test compound to 90 μL of prewarmed (37 °C) human plasma with a final concentration of 5 μM. All assays were performed in a plate shaker at 37 °C and conducted in triplicate. At 0, 5, 15, 30, 60, and 120 min, 400 μL acetonitrile (with the internal standard diclofenac as 10 μg/mL) was added to deproteinize the plasma and terminate the reaction, the remaining compound was then analyzed by HPLC-MS/MS.

Series [4] addresses T2, NLuc-ENL YEATS (Homo sapiens, UniProt Q03111).
T2 construct: DNA encoding the ENL YEATS domain (aa 1–148) was cloned into an NLuc containing plasmid; expressed in transfected cells
T2 sequence (Q03111 1-148): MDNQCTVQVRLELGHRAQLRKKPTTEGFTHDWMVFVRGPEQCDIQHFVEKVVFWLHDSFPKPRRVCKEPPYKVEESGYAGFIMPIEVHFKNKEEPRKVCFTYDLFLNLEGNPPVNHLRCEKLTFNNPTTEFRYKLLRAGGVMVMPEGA
Put plainly: ENL-NanoBRET inhibitor competitive assay. The format is cell-based. Conditions: for IC50: HEK293T cells stably expressing NLuc-ENL YEATS, 1 μM Tracer 2, 2 h, mean ± SD, n = 3; for reduction in NanoBRET signal: concentrations up to 80 μM. The method, then: Approximately 1.8 × 10^4 HEK293T cells (100 μL) stably expressing NLuc-ENL YEATS were seeded into a white nonbinding 96-well assay plate and incubated overnight at 37 °C in a humidified 5% CO2 atmosphere. After removal of the medium, the cells were added with a tracer (with or without excess of unlabeled compound) in the Opti-MEM with 0.1% DMSO. After incubation at 37 °C for 2 h the assay plate was equilibrated at room temperature for 15 min. For BRET detection, the NanoGlo Substrate and the extracellular NanoLuc inhibitor (Promega, N2160) were diluted with Opti-MEM as described in protocol to afford detection solution. 50 μL of the detection solution was added per well and the plate was incubated for 3 min at room temperature. The donor emission was measured at 450 nm and the acceptor emission at 610 nm using a BioTek SYNERGY neo2 multimode reader. The BRET ratio was calculated according to the following formula: BRET ratio = [(acceptorsample/donorsample) – (acceptorno-tracer control/donorno-tracer control)] × 1000.
Sample procedures were followed for cell seeding as described in the previously described tracer affinity assay. After removal of the medium, the cells were added with a tracer in the medium (1.1 μM, 100 μL) and varied concentrations of a test compound in 0.1% DMSO (10 μL). The plate was thoroughly mixed on an orbital shaker for 15 s at 900 rpm. Then the cells were incubated at 37 °C, 5% CO2 for 2 h for BRET ratio detection as described previously.
(In general: In BRET a luciferase serves as donor, and the signal depends on an acceptor being close.)

Series [5] in a line: Log D at pH 7.4 (chromatographic procedure). Conditions: n-octanol / aqueous buffer pH 7.4, pH 7.4. The format is physicochemical. The method, then:
Log D at 7.4, which is a partition coefficient between n-octanol and aqueous buffer pH 7.4 of the compounds was measured on the chromatographic procedure whose condition was developed based on a published method.[35]

Setting [6] is: human, human liver microsomes, pH 7.4, HLM 0.5 mg/mL, NADPH 1 mM, mean ± SD, n = 3.
Setting [7] is: human, human liver microsomes, pH 7.4, HLM 0.5 mg/mL, NADPH 1 mM, mean ± SD, n = 3, read-out: Liver Microsome t1/2.

Molecules are shown by their SMILES.

The values that follow come from paper PMC11613437, “Prioritization of Eleven-Nineteen-Leukemia Inhibitors as Orally Available Drug Candidates for Acute Myeloid Leukemia” (Journal of Medicinal Chemistry, 2024).

As usually defined, the IC50 is the point on the concentration scale where inhibition reaches its midpoint. As a reminder, the chromatographic logD is lipophilicity estimated from chromatographic retention. A low value points to lower lipophilicity.

For `CC(C)[C@H]1CCN1Cc1ccc(CNC(=O)c2ccc3nncn3c2)cc1` [13 (R), (R)-N-(4-((2-Isopropylazetidin-1-yl)methyl)benzyl)-[1,2,4]triazolo[4,3-a]pyridine-6-carboxamide], the concentration for half-maximal inhibition (IC50) in series [1] came to 2260 nM.
Same read-out and setting: in the case of `CC(C)[C@@H]1CCN1Cc1ccc(CNC(=O)c2ccc3nncn3c2)cc1` [13 (S), (S)-N-(4-((2-isopropylazetidin-1-yl)methyl)benzyl)-[1,2,4]triazolo[4,3-a]pyridine-6-carboxamide] it was 970 nM.
As to `CC(C)[C@@H]1CCN1Cc1cc2cnc(NC(=O)c3ccc4nncn4c3)cc2[nH]1` [SR-C-107 (S), (S)-N-(2-((2-Isopropylazetidin-1-yl)methyl)-1H-pyrrolo[3,2-c]pyridin-6-yl)-[1,2,4]triazolo[4,3-a]pyridine-6-carboxamide], in series [2] (setting [6]), the CLint scaled at 1 h amounted to 10.9 mL/min/kg. In addition, the half-life in series [2] (setting [7]) came to 2.75 h. The half-life at 1 h in series [2] (setting [7]) turned out to be 2.76 ± 0.639 h. Besides, the IC50 in series [1] came out at 1380 nM; in series [4], 5670 nM. Also, the “Plasma % of parent compound remaining (after 2h incubation)” value (shortened to “Plasma % of parent compound remaining”) in series [3] stood at 89.11 ± 6.07%. The compound further had a chromatographic logD in series [5] of 0.89.
As for `CSc1ccc(CNC(=O)c2ccc3nncn3c2)cc1` [inhibitor 1], the CLint scaled at 1 h in series [2] (setting [6]) worked out at 22.2 ± 4.76 mL/min/kg. In addition, in series [2] (setting [7]), the half-life at 1 h worked out at 1.34 ± 0.292 h. Further, the “parent compound remaining after 60 min incubation in HLM” value (“parent compound remaining … in HLM” below) in series [2] was “about 60%”. In series [3], the “degradation after 2 h incubation in human plasma” value (from here on “degradation after 2 h incubation”) is reported as “approximately 15%” and the “Plasma % of parent compound remaining” value was 84.81 ± 6.84%. Besides, the IC50 in series [4] is 1260 nM. In addition, the chromatographic logD in series [5] came out at 1.19.
Regarding `CN(C)Cc1ccc(CNC(=O)c2ccc3nncn3c2)cc1` [inhibitor 7], the IC50 in series [4] is over 80000 nM. The same compound yielded a chromatographic logD in series [5] of 0.28.
`O=C(NCc1ccc(CN2CCCCC2)cc1)c1ccc2nncn2c1` [inhibitor 8]: in series [4], the IC50 is over 80000 nM and the “reduction in NanoBRET signal” value was “minimal reductions in NanoBRET signal”. In series [5], this compound displayed a chromatographic logD of 0.11.
As to `O=C(NCc1ccc(CN2CCOCC2)cc1)c1ccc2nncn2c1` [inhibitor 9], in series [4], the IC50 was over 80000 nM and the “reduction in NanoBRET signal” value is “minimal reductions in NanoBRET signal”. This compound had a chromatographic logD in series [5] of -0.1.
With `O=C(NCc1ccc(CN2CCC2)cc1)c1ccc2nncn2c1` [inhibitor 11], the “reduction in NanoBRET signal” value in series [4] was “minimal reductions in NanoBRET signal”. Also, the chromatographic logD in series [5] was 0.17.
For `CC1CCN1Cc1ccc(CNC(=O)c2ccc3nncn3c2)cc1` (stereo not shown) [inhibitor 12], the CLint scaled at 1 h in series [2] (setting [6]) is 21.6 ± 1.89 mL/min/kg. Further, the half-life at 1 h in series [2] (setting [7]) was 1.35 ± 0.117 h. Moreover, the “parent compound remaining … in HLM” value in series [2] was “about 60%”. In series [3], the “degradation after 2 h incubation” value was “approximately 15%” and the “Plasma % of parent compound remaining” value came to 85.32 ± 3.24%. In addition, in series [4], the IC50 was 1340 nM. The compound also showed a chromatographic logD in series [5] of -0.07.
Consider `O=C(NCc1cccc(CN2CCC2)c1)c1ccc2nncn2c1` [inhibitor 15], for which the CLint scaled at 1 h in series [2] (setting [6]) amounted to 6.93 mL/min/kg. Besides, in series [2] (setting [7]), the half-life at 1 h came out at 4.23 ± 0.603 h. Also, the “parent compound remaining … in HLM” value in series [2] is “over 90%”. For the same compound, the IC50 in series [4] was determined as 3260 nM. Further, the chromatographic logD in series [5] came out at 0.29.
Take `O=C(NCc1ccc(CNc2ncc(F)cn2)cc1)c1ccc2nncn2c1` [inhibitor 24]: the CLint scaled at 1 h in series [2] (setting [6]) worked out at 9.95 mL/min/kg. For the same compound, the half-life at 1 h in series [2] (setting [7]) is 2.92 ± 0.22 h. In series [3], the “degradation after 2 h incubation” value is “approximately 15%” and the “Plasma % of parent compound remaining” value is listed as 88.42 ± 4.98%. Besides, in series [5], the chromatographic logD is 0.96.
